Reference: PubChem BioAssay (NCI)
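Assay format: 96-well plates, 48-hour exposure. TGI: concentration producing complete growth inhibition.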

Legend:
Assay in all cases: NCI-60 cell line screen, 48 h
[1] = tested on: K-562 leukemia
[2] = tested on: U251 CNS
[3] = tested on: BT-549 breast
[4] = tested on: SF-295 CNS
[5] = tested on: COLO 205 colon
[6] = tested on: OVCAR-5 ovarian
[7] = tested on: T-47D breast
[8] = tested on: M14 melanoma
[9] = tested on: ACHN renal
[10] = tested on: PC-3 prostate
[11] = tested on: OVCAR-4 ovarian
[12] = tested on: NCI-H23 lung
[13] = tested on: UACC-62 melanoma
[14] = tested on: SNB-75 CNS
[15] = tested on: SK-OV-3 ovarian
[16] = tested on: SK-MEL-2 melanoma
[17] = tested on: HT29 colon
[18] = tested on: NCI-H226 lung
[19] = tested on: SNB-19 CNS
[20] = tested on: EKVX NSCLC
[21] = tested on: HCT-116 colon
[22] = tested on: MDA-MB-231 breast
[23] = tested on: A498 renal
[24] = tested on: SK-MEL-28 melanoma
[25] = tested on: NCI/ADR-RES ovarian
[26] = tested on: SR leukemia
[27] = tested on: OVCAR-8 ovarian
[28] = tested on: MCF7 breast
[29] = tested on: HCT-15 colon
[30] = tested on: MDA-MB-435
[31] = tested on: SF-268 CNS
[32] = tested on: HS 578T breast
[33] = tested on: HOP-92 NSCLC
[34] = tested on: 786-0 renal
[35] = tested on: IGROV1 ovarian
[36] = tested on: RXF 393 renal
[37] = tested on: MALME-3M melanoma
[38] = tested on: A549 NSCLC
[39] = tested on: CAKI-1 renal
[40] = tested on: RPMI-8226 leukemia
[41] = tested on: MDA-N
[42] = tested on: NCI-H522 lung
[43] = tested on: SF-539 CNS
[44] = tested on: SK-MEL-5 melanoma
[45] = tested on: HCC-2998 colon
[46] = tested on: HOP-62 NSCLC
[47] = tested on: MOLT-4 leukemia
[48] = tested on: UO-31 renal
[49] = tested on: HL-60(TB) leukemia
[50] = tested on: KM12 colon
[51] = tested on: SW-620 colon
[52] = tested on: UACC-257 melanoma
[53] = tested on: NCI-H460 lung
[54] = tested on: LOX IMVI melanoma
[55] = tested on: OVCAR-3 ovarian
[56] = tested on: CCRF-CEM leukemia
[57] = tested on: TK-10 renal
[58] = tested on: DU-145 prostate
[59] = tested on: SN12C renal

CN(/N=C/c1ccccn1)C1=NCCN1
TGI [1]: > 100 µM | TGI [2]: > 100 µM | TGI [3]: > 100 µM | TGI [4]: > 100 µM | TGI [5]: > 100 µM | TGI [6]: > 100 µM | TGI [7]: > 100 µM | TGI [8]: > 100 µM | TGI [9]: > 100 µM | TGI [10]: > 100 µM | TGI [11]: > 100 µM | TGI [12]: > 100 µM | TGI [13]: > 100 µM | TGI [14]: > 100 µM | TGI [15]: > 100 µM | TGI [16]: > 100 µM | TGI [17]: > 100 µM | TGI [18]: > 100 µM | TGI [19]: > 100 µM | TGI [20]: > 100 µM | TGI [21]: > 100 µM | TGI [22]: > 100 µM | TGI [23]: > 100 µM | TGI [24]: > 100 µM | TGI [25]: > 100 µM | TGI [26]: > 100 µM | TGI [27]: > 100 µM | TGI [28]: > 100 µM | TGI [29]: > 100 µM | TGI [30]: > 100 µM | TGI [31]: > 100 µM | TGI [32]: > 100 µM | TGI [33]: > 100 µM | TGI [34]: > 100 µM | TGI [35]: > 100 µM | TGI [36]: > 100 µM | TGI [37]: > 100 µM | TGI [38]: > 100 µM | TGI [39]: > 100 µM | TGI [40]: > 100 µM | TGI [41]: > 100 µM | TGI [42]: > 100 µM | TGI [43]: > 100 µM | TGI [44]: > 100 µM | TGI [45]: > 100 µM | TGI [46]: > 100 µM | TGI [47]: > 100 µM | TGI [48]: > 100 µM | TGI [49]: > 100 µM | TGI [50]: > 100 µM | TGI [51]: > 100 µM | TGI [52]: > 100 µM | TGI [53]: > 100 µM | TGI [54]: > 100 µM | TGI [55]: > 100 µM | TGI [56]: > 100 µM

N#CCc1nc(-c2cc3ccccc3oc2=O)cs1
TGI [57]: > 100 µM | TGI [1]: > 100 µM | TGI [58]: > 100 µM | TGI [2]: > 100 µM | TGI [3]: 66.8 µM | TGI [4]: > 100 µM | TGI [5]: > 100 µM | TGI [6]: > 100 µM | TGI [7]: > 100 µM | TGI [8]: > 100 µM | TGI [9]: > 100 µM | TGI [10]: > 100 µM | TGI [11]: > 100 µM | TGI [13]: 45.6 µM | TGI [14]: 99.7 µM | TGI [15]: > 100 µM | TGI [16]: 80.2 µM | TGI [17]: > 100 µM | TGI [18]: > 100 µM | TGI [19]: > 100 µM | TGI [59]: > 100 µM | TGI [20]: > 100 µM | TGI [21]: > 100 µM | TGI [22]: > 100 µM | TGI [24]: > 100 µM | TGI [25]: > 100 µM | TGI [26]: > 100 µM | TGI [27]: > 100 µM | TGI [28]: > 100 µM | TGI [29]: > 100 µM | TGI [30]: > 100 µM | TGI [31]: > 100 µM | TGI [32]: > 100 µM | TGI [33]: > 100 µM | TGI [34]: > 100 µM | TGI [35]: > 100 µM | TGI [36]: > 100 µM | TGI [37]: > 100 µM | TGI [38]: > 100 µM | TGI [39]: > 100 µM | TGI [40]: > 100 µM | TGI [41]: > 100 µM | TGI [42]: > 100 µM | TGI [43]: > 100 µM | TGI [44]: 64 µM | TGI [45]: > 100 µM | TGI [46]: > 100 µM | TGI [47]: 63.1 µM | TGI [48]: > 100 µM | TGI [49]: > 100 µM | TGI [50]: > 100 µM | TGI [51]: > 100 µM | TGI [52]: > 100 µM | TGI [53]: > 100 µM | TGI [54]: > 100 µM | TGI [56]: > 100 µM
